Biological target: T1, human CYP1A2 (Homo sapiens, UniProt P05177)
T1 sequence (P05177 1-516): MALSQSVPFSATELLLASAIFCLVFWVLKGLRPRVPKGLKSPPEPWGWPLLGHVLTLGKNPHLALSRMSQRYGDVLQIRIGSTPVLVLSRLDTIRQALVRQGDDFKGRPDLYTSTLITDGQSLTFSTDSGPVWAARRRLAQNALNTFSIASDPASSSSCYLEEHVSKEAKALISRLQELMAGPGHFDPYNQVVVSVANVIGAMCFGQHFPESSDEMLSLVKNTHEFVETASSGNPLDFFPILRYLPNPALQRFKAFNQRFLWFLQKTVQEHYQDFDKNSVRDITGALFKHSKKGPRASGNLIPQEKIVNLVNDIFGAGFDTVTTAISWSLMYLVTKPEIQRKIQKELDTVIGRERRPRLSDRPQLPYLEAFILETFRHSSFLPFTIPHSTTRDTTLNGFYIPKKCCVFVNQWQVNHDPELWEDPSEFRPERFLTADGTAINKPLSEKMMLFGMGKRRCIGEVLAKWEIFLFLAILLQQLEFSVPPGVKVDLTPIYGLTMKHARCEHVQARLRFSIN
Assay: not given
Conditions: human

Structure (SMILES)	CYP1A2 Efficacy (in parenthesis)
O=S(=O)(c1ccc(Cl)cc1)c1ccc(Cl)cc1 [4,4'-Dichlorodiphenyl sulfone]	36.17 ± 4.16 (-44 ± 9) %
c1ccc(-c2ccc(C(c3ccccc3)n3ccnc3)cc2)cc1 (stereo not shown) [Bifonazole]	5.3 ± 0.35 (-105 ± 4) %
Clc1ccc(CCC(Cn2ccnc2)Sc2c(Cl)cccc2Cl)cc1 (stereo not shown) [Butoconazole nitrate]	16.12 ± 1.09 (-93 ± 6) %
CCOP(=S)(OCC)SCSc1ccc(Cl)cc1 [Carbophenothion]	8.84 ± 2.46 (-90 ± 2) %
CCOP(=S)(OCC)Oc1ccc2c(C)c(Cl)c(=O)oc2c1 [Coumaphos]	3.5 ± 0.6 (-95 ± 2) %
CC[N+](CC)(CC(=O)Nc1c(C)cccc1C)Cc1ccccc1 [Denatonium benzoate]	38.47 ± 2.51 (-59 ± 16) %
O=C1c2ccccc2C(=O)C1C(=O)C(c1ccccc1)c1ccccc1 [Diphacinone]	28.28 ± 11.08 (-93 ± 7) %

Biological target: T2, human CYP2C9 (Homo sapiens, UniProt P11712)
Assay: not given
Conditions: human

T2 sequence (P11712 whole entry): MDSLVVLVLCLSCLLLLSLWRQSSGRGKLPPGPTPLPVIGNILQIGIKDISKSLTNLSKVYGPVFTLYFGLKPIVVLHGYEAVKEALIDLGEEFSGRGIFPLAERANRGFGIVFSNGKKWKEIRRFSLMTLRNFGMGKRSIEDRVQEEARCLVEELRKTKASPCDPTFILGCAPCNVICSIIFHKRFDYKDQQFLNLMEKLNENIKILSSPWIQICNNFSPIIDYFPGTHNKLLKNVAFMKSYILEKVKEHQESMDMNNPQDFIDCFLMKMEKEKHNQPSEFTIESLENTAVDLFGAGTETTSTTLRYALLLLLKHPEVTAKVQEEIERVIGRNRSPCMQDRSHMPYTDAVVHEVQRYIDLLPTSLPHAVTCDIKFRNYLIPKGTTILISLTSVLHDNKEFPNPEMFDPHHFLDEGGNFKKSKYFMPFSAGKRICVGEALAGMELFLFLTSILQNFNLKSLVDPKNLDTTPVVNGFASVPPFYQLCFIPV

Structure (SMILES)	CYP2C9 Efficacy (in parenthesis)
O=S(=O)(c1ccc(Cl)cc1)c1ccc(Cl)cc1 [4,4'-Dichlorodiphenyl sulfone]	31.35 ± 2.66 (-52 ± 4) %
c1ccc(-c2ccc(C(c3ccccc3)n3ccnc3)cc2)cc1 (stereo not shown) [Bifonazole]	0.25 ± 0.05 (-104 ± 3) %
Clc1ccc(CCC(Cn2ccnc2)Sc2c(Cl)cccc2Cl)cc1 (stereo not shown) [Butoconazole nitrate]	0.1 ± 0.02 (-98 ± 4) %
CCOP(=S)(OCC)SCSc1ccc(Cl)cc1 [Carbophenothion]	1.13 ± 0.13 (-94 ± 12) %
CCOP(=S)(OCC)Oc1ccc2c(C)c(Cl)c(=O)oc2c1 [Coumaphos]	0.28 ± 0.02 (-103 ± 5) %
O=C1c2ccccc2C(=O)C1C(=O)C(c1ccccc1)c1ccccc1 [Diphacinone]	0.53 ± 0.74 (-101 ± 4) %

Biological target: T3, human CYP2C19 (Homo sapiens, UniProt P33261)
Assay: not given
Conditions: human

T3 sequence (P33261 whole entry): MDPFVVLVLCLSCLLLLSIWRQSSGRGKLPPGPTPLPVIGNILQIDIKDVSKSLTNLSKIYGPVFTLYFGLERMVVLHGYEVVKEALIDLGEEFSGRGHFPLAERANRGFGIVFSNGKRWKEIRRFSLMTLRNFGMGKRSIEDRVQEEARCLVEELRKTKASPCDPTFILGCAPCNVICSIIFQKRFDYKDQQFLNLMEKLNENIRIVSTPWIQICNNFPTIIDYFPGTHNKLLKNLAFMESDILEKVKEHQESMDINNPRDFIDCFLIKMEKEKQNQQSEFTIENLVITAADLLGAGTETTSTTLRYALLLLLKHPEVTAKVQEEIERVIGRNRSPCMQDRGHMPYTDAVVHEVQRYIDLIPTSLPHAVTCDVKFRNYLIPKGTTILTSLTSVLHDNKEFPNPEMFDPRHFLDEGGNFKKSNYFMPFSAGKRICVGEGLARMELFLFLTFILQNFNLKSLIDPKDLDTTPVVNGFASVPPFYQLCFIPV

Structure (SMILES)	CYP2C19 Efficacy (in parenthesis)
O=S(=O)(c1ccc(Cl)cc1)c1ccc(Cl)cc1 [4,4'-Dichlorodiphenyl sulfone]	0.34 ± 0.1 (-146 ± 11) %
c1ccc(-c2ccc(C(c3ccccc3)n3ccnc3)cc2)cc1 (stereo not shown) [Bifonazole]	0.47 ± 0.14 (-136 ± 18) %
Clc1ccc(CCC(Cn2ccnc2)Sc2c(Cl)cccc2Cl)cc1 (stereo not shown) [Butoconazole nitrate]	0.04 ± 0.0 (-132 ± 17) %
CCOP(=S)(OCC)SCSc1ccc(Cl)cc1 [Carbophenothion]	0.47 ± 0.18 (-138 ± 5) %
CCOP(=S)(OCC)Oc1ccc2c(C)c(Cl)c(=O)oc2c1 [Coumaphos]	0.32 ± 0.04 (-144 ± 23) %
CC[N+](CC)(CC(=O)Nc1c(C)cccc1C)Cc1ccccc1 [Denatonium benzoate]	38.47 ± 2.51 (-100 ± 4) %
O=C1c2ccccc2C(=O)C1C(=O)C(c1ccccc1)c1ccccc1 [Diphacinone]	34.81 ± 11.45 (-80 ± 23) %

Biological target: T4, human CYP2D6 (Homo sapiens, UniProt P10635)
Assay: not given
Conditions: human

T4 sequence (P10635 whole entry): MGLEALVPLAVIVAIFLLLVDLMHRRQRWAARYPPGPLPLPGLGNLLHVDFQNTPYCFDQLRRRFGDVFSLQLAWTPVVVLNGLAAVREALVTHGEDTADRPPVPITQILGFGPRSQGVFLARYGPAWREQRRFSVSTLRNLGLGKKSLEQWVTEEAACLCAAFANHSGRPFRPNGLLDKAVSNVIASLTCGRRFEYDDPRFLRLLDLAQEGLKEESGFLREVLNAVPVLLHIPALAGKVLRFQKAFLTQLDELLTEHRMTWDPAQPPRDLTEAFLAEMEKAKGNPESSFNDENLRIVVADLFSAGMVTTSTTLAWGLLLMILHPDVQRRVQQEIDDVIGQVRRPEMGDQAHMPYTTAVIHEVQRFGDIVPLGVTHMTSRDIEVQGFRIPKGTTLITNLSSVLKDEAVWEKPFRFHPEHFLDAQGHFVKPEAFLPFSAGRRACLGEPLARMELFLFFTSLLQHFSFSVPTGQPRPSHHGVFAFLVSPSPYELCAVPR

Structure (SMILES)	CYP2D6 Efficacy (in parenthesis)
O=S(=O)(c1ccc(Cl)cc1)c1ccc(Cl)cc1 [4,4'-Dichlorodiphenyl sulfone]	40.58 ± 4.66 (-51 ± 10) %
c1ccc(-c2ccc(C(c3ccccc3)n3ccnc3)cc2)cc1 (stereo not shown) [Bifonazole]	1.82 ± 0.33 (-107 ± 6) %
Clc1ccc(CCC(Cn2ccnc2)Sc2c(Cl)cccc2Cl)cc1 (stereo not shown) [Butoconazole nitrate]	2.37 ± 0.15 (-100 ± 5) %
CCOP(=S)(OCC)SCSc1ccc(Cl)cc1 [Carbophenothion]	13.25 ± 2.38 (-84 ± 7) %
CCOP(=S)(OCC)Oc1ccc2c(C)c(Cl)c(=O)oc2c1 [Coumaphos]	5.34 ± 0.96 (-101 ± 7) %
CC[N+](CC)(CC(=O)Nc1c(C)cccc1C)Cc1ccccc1 [Denatonium benzoate]	0.01 ± 0 (-107 ± 7) %
O=C1c2ccccc2C(=O)C1C(=O)C(c1ccccc1)c1ccccc1 [Diphacinone]	32.29 ± 4.12 (-49 ± 4) %

Biological target: T1, human CYP1A2
Assay: biochemical
Conditions: CYP1A2 IC50 (half-maximal inhibitory concentration)

Structure (SMILES)	IC50
O=S(=O)(c1ccc(Cl)cc1)c1ccc(Cl)cc1 [4,4'-Dichlorodiphenyl sulfone]	36200 nM
c1ccc(-c2ccc(C(c3ccccc3)n3ccnc3)cc2)cc1 (stereo not shown) [Bifonazole]	5300 nM
Clc1ccc(CCC(Cn2ccnc2)Sc2c(Cl)cccc2Cl)cc1 (stereo not shown) [Butoconazole nitrate]	16100 nM
CCOP(=S)(OCC)SCSc1ccc(Cl)cc1 [Carbophenothion]	8840 nM
CCOP(=S)(OCC)Oc1ccc2c(C)c(Cl)c(=O)oc2c1 [Coumaphos]	3500 nM
CC[N+](CC)(CC(=O)Nc1c(C)cccc1C)Cc1ccccc1 [Denatonium benzoate]	38500 nM
O=C1c2ccccc2C(=O)C1C(=O)C(c1ccccc1)c1ccccc1 [Diphacinone]	28300 nM

Biological target: T2, human CYP2C9
Assay: biochemical
Conditions: not given

Structure (SMILES)	IC50
CCOP(=S)(OCC)SCSc1ccc(Cl)cc1 [Carbophenothion]	1130 nM
CCOP(=S)(OCC)Oc1ccc2c(C)c(Cl)c(=O)oc2c1 [Coumaphos]	280 nM

Same assay, conditions: CYP2C9 IC50 (half-maximal inhibitory concentration)

Structure (SMILES)	IC50
O=S(=O)(c1ccc(Cl)cc1)c1ccc(Cl)cc1 [4,4'-Dichlorodiphenyl sulfone]	31400 nM
c1ccc(-c2ccc(C(c3ccccc3)n3ccnc3)cc2)cc1 (stereo not shown) [Bifonazole]	250 nM
Clc1ccc(CCC(Cn2ccnc2)Sc2c(Cl)cccc2Cl)cc1 (stereo not shown) [Butoconazole nitrate]	100 nM
O=C1c2ccccc2C(=O)C1C(=O)C(c1ccccc1)c1ccccc1 [Diphacinone]	530 nM

Same assay, conditions: IC50 CYP2C9 assay

Structure (SMILES)	IC50
O=C1c2ccccc2C(=O)C1C(=O)C(c1ccccc1)c1ccccc1 [Diphacinone]	500 nM

Biological target: T3, human CYP2C19
Assay: biochemical
Conditions: CYP2C19 IC50 (half-maximal inhibitory concentration)

Structure (SMILES)	IC50
O=S(=O)(c1ccc(Cl)cc1)c1ccc(Cl)cc1 [4,4'-Dichlorodiphenyl sulfone]	340 nM
c1ccc(-c2ccc(C(c3ccccc3)n3ccnc3)cc2)cc1 (stereo not shown) [Bifonazole]	470 nM
Clc1ccc(CCC(Cn2ccnc2)Sc2c(Cl)cccc2Cl)cc1 (stereo not shown) [Butoconazole nitrate]	40 nM
CCOP(=S)(OCC)SCSc1ccc(Cl)cc1 [Carbophenothion]	470 nM
CCOP(=S)(OCC)Oc1ccc2c(C)c(Cl)c(=O)oc2c1 [Coumaphos]	320 nM
CC[N+](CC)(CC(=O)Nc1c(C)cccc1C)Cc1ccccc1 [Denatonium benzoate]	38500 nM
O=C1c2ccccc2C(=O)C1C(=O)C(c1ccccc1)c1ccccc1 [Diphacinone]	34800 nM

Biological target: T4, human CYP2D6
Assay: biochemical
Conditions: not given

Structure (SMILES)	IC50
CCOP(=S)(OCC)SCSc1ccc(Cl)cc1 [Carbophenothion]	13200 nM
CCOP(=S)(OCC)Oc1ccc2c(C)c(Cl)c(=O)oc2c1 [Coumaphos]	5340 nM

Same assay, conditions: CYP2D6 IC50 (half-maximal inhibitory concentration)

Structure (SMILES)	IC50
O=S(=O)(c1ccc(Cl)cc1)c1ccc(Cl)cc1 [4,4'-Dichlorodiphenyl sulfone]	40600 nM
c1ccc(-c2ccc(C(c3ccccc3)n3ccnc3)cc2)cc1 (stereo not shown) [Bifonazole]	1820 nM
Clc1ccc(CCC(Cn2ccnc2)Sc2c(Cl)cccc2Cl)cc1 (stereo not shown) [Butoconazole nitrate]	2370 nM
CC[N+](CC)(CC(=O)Nc1c(C)cccc1C)Cc1ccccc1 [Denatonium benzoate]	10 nM
O=C1c2ccccc2C(=O)C1C(=O)C(c1ccccc1)c1ccccc1 [Diphacinone]	32300 nM

Source: publication PMC12155096 (International Journal of Molecular Sciences, 2025)
